How the values were obtained:
[1] = Lipophilicity, log D of compound; assay type: physicochemical; conditions: octanol/water
[2] = Efflux ratio in human Caco2 cells; assay type: ADME, cell-based; conditions: Caco-2

## C=CC(=O)N1CCN2c3c(cnc4cc(-c5c(O)cccc5F)c(Cl)cc34)NC(=O)[C@H]2C1
[1]
  logD: 3

## C=CC(=O)N1CCN2c3c(cnc4cc(-c5c(O)cccc5F)c(Cl)cc34)N(C)C(=O)[C@H]2C1
[1]
  logD: 3
[2]
  efflux ratio: 0.9

Reference: ChEMBL document CHEMBL4732037, “Drugging the undruggable: a computational chemist''s view of KRASG12C” (RSC Med Chem, 2021)
